For one data set, the system named is mouse. As to conditions: second phase (15-30 minutes); cited from earlier work.
Another data set has as its target T1, 5-HT2c receptor (Homo sapiens, UniProt P28335).
T1 sequence (P28335 33-458): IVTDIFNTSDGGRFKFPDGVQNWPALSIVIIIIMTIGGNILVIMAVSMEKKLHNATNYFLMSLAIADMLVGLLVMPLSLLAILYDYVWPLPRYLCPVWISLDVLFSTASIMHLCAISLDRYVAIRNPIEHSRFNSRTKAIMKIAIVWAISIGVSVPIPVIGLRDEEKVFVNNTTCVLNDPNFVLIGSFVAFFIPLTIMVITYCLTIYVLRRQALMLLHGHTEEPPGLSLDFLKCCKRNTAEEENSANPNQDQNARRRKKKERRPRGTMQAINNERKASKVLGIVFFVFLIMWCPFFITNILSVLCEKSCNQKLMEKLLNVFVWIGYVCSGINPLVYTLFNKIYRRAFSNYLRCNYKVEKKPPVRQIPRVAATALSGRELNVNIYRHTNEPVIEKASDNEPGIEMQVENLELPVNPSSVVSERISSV
Briefly: Functional activity at the 5-HT2c receptor. Type of data set: biochemical. The source says:
It has been proposed that serotonin exerts control of dopamine release in the ventral tegmental area via the 5-HT2c receptor. […] Opioid analgesic effects are manifested via the periaqueductal gray whereas reduction in self-administration results from a reduction in dopamine neurotransmission via 5-HT2c partial agonism in the ventral tegmental area.

For data set [1], the system named is patients with major depressive disorder. The note with it: cited from earlier work.
The test system of the next data set is female rats. As to conditions: doses of 5 and 10 mg/kg; cited from earlier work.
The subject of the next data set is rats. Briefly: Hot plate test of analgesia. Type of data set: in vivo, rat. The source says: The hot plate test assesses antinociception in rats and mice (see, e.g., Basile, A. et al., “Characterization of the Antinociceptive Actions of Bicifadine in Models of Acute, Persistent, and Chronic Pain,” The Journal of Pharmacology and Experimental Therapeutics, 2007, 321 (3), 1208-1225).
(Hot-plate and tail-flick tests time the reaction to a heat stimulus.)

As for `Cl.Clc1ccc([C@]23CNC[C@H]2C3)cc1Cl` [(1R,5S)-1-(3,4-dichlorophenyl)-3-azabicyclo[3.1.0]hexane hydrochloride], the “effectiveness compared with morphine in formalin paw lick test” value in the data set with mouse was “as effective as morphine”.

On to `Clc1ccc([C@]23CNC[C@H]2C3)cc1Cl` [amitifadine, (1R,5S)-1-(3,4-dichlorophenyl)-3-azabicyclo[3.1.0]hexane], for which the “activity at the 5-HT2c receptor” value on 5-HT2c receptor is listed as “partial agonist”. Also, the antidepressant activity entry in data set [1] was “significant antidepressant activity”. The food motivated responding result in the data set on female rats was “does not significantly affect”. The “antinociception in hot plate test, given alone” value with rats (amitifadine alone) is given as “antinociceptive”. For the same compound, the “effect on the opioid's antinociception in hot plate test, in combination” value in the data set on rats (amitifadine in combination with an opioid) is on record as “does not attenuate the opioid's antinociception, instead extending the opioid's antinociception”.

Values taken from patent publication US12257233B2, “Methods” (Ethismos Research, Inc., priority 2018, dated 2025).
